Laboratory results published in patent publication US9617244B2, “Antibacterial quinoline derivatives” (JANSSEN PHARMACEUTICA NV, priority 2012, dated 2017).
Converted amounts (≈) assume the structure as drawn.

What was measured:
[1] = test system: Mycobacterium smegmatis (ATCC607); assay: In-vitro anti-bacterial activity against strain M. Smegmatis ATCC607; format: cell-based; conditions: 90% inhibitory concentration for bacterial growth, Alamar Blue fluorescence; for IC90: Mycolicibacterium smegmatis, ATCC607, 48 h, read-out: IC90 MSM 607; for IC90 MSM 607: 48 hours
Experimental: D.1. In-Vitro Method for Testing Compounds for Anti-Bacterial Activity Against Strain M. Smegmatis ATCC607
Flat-bottom, sterile 96-well plastic microtiter plates were filled with 180 μl of sterile deionized water, supplemented with 0.25% BSA. Subsequently, stock solutions (7.8× final test concentration) of compounds were added in 45 μl volumes to a series of duplicate wells in column 2 so as to allow evaluation of their effects on bacterial growth. Serial five-fold dilutions (45 μl in 180 μl) were made directly in the microtiter plates from column 2 to 11 using a customised robot system (Zymark Corp., Hopkinton, Mass.). Pipette tips were changed after every 3 dilutions to minimize pipetting errors with high hydrophobic compounds. Untreated control samples with (column 1) and without (column 12) inoculum were included in each microtiter plate. Approximately 250 CFU per well of bacteria inoculum, in a volume of 100 μl in 2.8× Mueller-Hinton broth medium, was added to the rows A to H, except column 12. The same volume of broth medium without inoculum was added to column 12 in row A to H. The cultures were incubated at 37° C. for 48 hours in a humidified 5% CO2 atmosphere (incubator with open air valve and continuous ventilation). At the end of incubation, two days after inoculation, the bacterial growth was quantitated fluorometrically. Therefore Alamar Blue (10×) was added to all wells in a volume of 20 μl and plates were incubated for another 2 hours at […]
The fluorescence was read in a computer-controlled fluorometer (Cytofluor, Biosearch) at an excitation wavelength of 530 nm and an emission wavelength of 590 nm (gain 30). The percentage growth inhibition achieved by the compounds was calculated according to standard methods and expressed as IC90 (μg/ml) which defines the 90% inhibitory concentration for bacterial growth.

[2] = test system: Staphylococcus aureus (ATCC29213); assay: In-vitro anti-bacterial activity, microtitre plate assay, IC90 determination (non-mycobacterial strains); format: cell-based; conditions: 90% inhibitory concentration for bacterial growth, resazurin fluorescence; for IC90 STA B29213: 24 hours; for IC90: Staphylococcus aureus, ATCC29213, 24 h, read-out: IC90 STA B29213
Experimental: D.2. In-Vitro Method for Testing Compounds for Anti-Bacterial Activity Against Various Non-Mycobacterial Strains
Preparation of Bacterial Suspensions for Susceptibility Testing:
The bacteria used in this study were grown overnight in flasks containing 100 ml Mueller-Hinton Broth (Becton Dickinson—cat. no. 275730) in sterile de-ionized water, with shaking, at 37° C. Stocks (0.5 ml/tube) were stored at −70° C. until use. Bacteria titrations were performed in microtiter plates to detect the TCID50, in which TCID50 represents the dilution that gives rise to bacterial growth in 50% of inoculated cultures. In general, an inoculum level of approximately 100 TCID50 was used for susceptibility testing.
Anti Bacterial Susceptibility Testing: IC90 Determination
Flat-bottom, sterile 96-well plastic microtiter plates were filled with 180 μl of sterile deionized water, supplemented with 0.25% BSA. Subsequently, stock solutions (7.8× final test concentration) of compounds were added in 45 μl volumes in column 2 Serial five-fold dilutions (45 μl in 180 μl) were made directly in the microtiter plates from column 2 to reach column 11. Untreated control samples with (column 1) and without (column 12) inoculum were included in each microtiter plate. Depending on the bacteria type, approximately 10 to 60 CFU per well of bacteria inoculum (100 TCID50), in a volume of 100 μl in 2.8× Mueller-Hinton broth medium, was added to the rows A to H, except column 12. The same volume of broth medium without inoculum was added to column 12 in row A to H. The cultures were incubated at 37° C. for 24 hours under a normal atmosphere (incubator with open air valve and continuous ventilation). At the end of incubation, one day after inoculation, the bacterial growth was quantitated fluorometrically. Therefore resazurin (0.6 mg/ml) was added in a volume of 20 μl to all wells 3 hours after inoculation, and the plates were re-incubated overnight. A change in colour from blue to pink indicated the growth of bacteria. The fluorescence was read in a computer-controlled fluorometer (Cytofluor Biosearch) at an excitation wavelength of 530 nm and an emission wavelength of 590 nm. The % growth inhibition achieved by the compounds was calculated according to standard methods. The IC90 (expressed in μg/ml) was defined as the 90% inhibitory concentration for bacterial growth.

Row | Compound | IC90 [1] [µg/mL] | IC90 STA B29213 [2] [µg/mL] | IC90 MSM 607 [1] [µg/mL] | IC90 [2] [µg/mL]
1 | O=c1[nH]c2ccc(Br)cc2cc1C(c1ccc(Cl)cc1)C1(O)CCNC(Cc2ccc(F)cc2)C1 (stereo not shown) [Compound 341] | 4.71 (≈ 8.47 µM) | 2.36 (≈ 4.25 µM) |  | 
2 | COc1nc2ccc(F)cc2cc1C(c1ccc(Cl)cc1)C1(O)CCNC(Cc2ccccc2)C1 (stereo not shown) [Compound 55] |  | 6.19 (≈ 12.6 µM) | 3.90 (≈ 7.94 µM) | 
3 | COc1nc2ccc(SC)cc2cc1C(c1ccccc1)C1(O)CCNC(c2ccc(F)cc2C)C1 (stereo not shown) [Compound 170] |  | 5.27 (≈ 10.5 µM) | 4.69 (≈ 9.33 µM) | 
4 | CSc1ccc(C(c2cc3cc(Cl)ccc3[nH]c2=O)C2(O)CCNC(c3ccc(F)cc3C)C2)cc1 (stereo not shown) [Compound 349] |  | 7.04 (≈ 13.5 µM) | 7.04 (≈ 13.5 µM) | 
5 | CSc1ccc2[nH]c(=O)c(C(c3cccc(Cl)c3)C3(O)CCNC(Cc4ccc(F)cc4F)C3)cc2c1 (stereo not shown) [Compound 310] |  | 3.62 (≈ 6.69 µM) | 3.62 (≈ 6.69 µM) | 
6 | COc1nc2ccc(Br)cc2cc1C(c1ccc(Cl)cc1)C1(O)CCNCC1Cc1cccc(F)c1 (stereo not shown) [Compound 48] |  | 0.90 (≈ 1.58 µM) | 0.72 (≈ 1.26 µM) | 
7 | CSc1ccc2[nH]c(=O)c(C(c3ccc(Cl)cc3)C3(O)CCNC(c4ccc(F)cc4C)C3)cc2c1 (stereo not shown) [Compound 266] | 2.22 (≈ 4.24 µM) |  |  | 2.5 (≈ 4.78 µM)
8 | O=c1[nH]c2ccc(Br)cc2cc1C(c1ccc(Cl)cc1)C1(O)CCNC(Cc2ccc(F)cc2F)C1 (stereo not shown) [Compound 317] |  | 1.92 (≈ 3.35 µM) | 1.92 (≈ 3.35 µM) | 
9 | COc1nc2ccccc2cc1C(c1ccccc1)C1(O)CCNC(Cc2ccccc2)C1 (stereo not shown) [Compound 402] |  | >12.47 | 12.47 (≈ 28.4 µM) | 
10 | COc1nc2ccc(SC)cc2cc1C(c1cccc(Cl)c1)C1(O)CCNC(c2ccc(F)cc2C)C1 (stereo not shown) [Compound 147] |  | 3.39 (≈ 6.31 µM) | 1.51 (≈ 2.81 µM) | 
11 | COc1nc2ccc(SC)cc2cc1C(c1ccc(Cl)cc1)C1(O)CCNC(c2ccc(F)cc2C)C1 (stereo not shown) [Compound 242] | 1.2 (≈ 2.23 µM) | 1.51 (≈ 2.81 µM) |  | 
12 | COc1nc2ccc(Cl)cc2cc1C(c1ccc(SC)cc1)C1(O)CCNC(c2ccc(F)cc2C)C1 (stereo not shown) [Compound 353] |  | 2.18 (≈ 4.06 µM) | 1.73 (≈ 3.22 µM) | 
13 | COc1nc2ccc(SC)cc2cc1C(c1ccccc1)C1(O)CCNC(c2ccc(F)cc2C)C1 (stereo not shown) [Compound 196] |  | 3.17 (≈ 6.31 µM) | 2.52 (≈ 5.01 µM) | 
14 | COc1nc2ccc(Cl)cc2cc1C(c1ccc(Cl)cc1)C1(O)CCNC(c2ccccc2)C1 (stereo not shown) [Compound 403] |  | 9.72 (≈ 19.7 µM) | 8.66 (≈ 17.6 µM) | 
15 | CS(=O)(=O)c1ccc2[nH]c(=O)c(C(c3ccc(Cl)cc3)C3(O)CCN[C@@H](Cc4ccc(F)c(F)c4)C3)cc2c1 (stereo in doubt) [Compound 207] |  | 3.83 (≈ 6.68 µM) | 3.83 (≈ 6.68 µM) | 
16 | CS(=O)(=O)c1ccc2[nH]c(=O)c(C(c3cccc(Cl)c3)C3(O)CCNC(Cc4ccc(F)cc4F)C3)cc2c1 (stereo not shown) [Compound 308] |  | 7.65 (≈ 13.3 µM) | 6.08 (≈ 10.6 µM) | 
17 | O=c1[nH]c2ccc(Br)cc2cc1C(c1ccc(Cl)cc1)C1(O)CCNC(Cc2ccc(F)c(F)c2)C1 (stereo not shown) [Compound 127] |  | 1.93 (≈ 3.36 µM) | 3.06 (≈ 5.33 µM) | 
18 | CSc1ccc2[nH]c(=O)c(C(c3ccc(Cl)cc3)C3(O)CCNC(c4ccccc4)C3)cc2c1 (stereo not shown) [Compound 231] |  | 3.30 (≈ 6.72 µM) | 2.62 (≈ 5.34 µM) | 
19 | O=c1[nH]c2ccc(Br)cc2cc1C(c1ccc(Cl)cc1)C1(O)CCNC(Cc2ccc(F)c(F)c2)C1 (stereo not shown) [Compound 134] |  | 3.07 (≈ 5.35 µM) | 3.86 (≈ 6.73 µM) | 

Row | Compound | IC90 [1] [µg/mL] | IC90 STA B29213 [2] [µg/mL] | IC90 MSM 607 [1] [µg/mL] | IC90 [2] [µg/mL]
20 | CSc1ccc2[nH]c(=O)c(C(c3ccc(Cl)cc3)C3(O)CCNC(c4ccccc4)C3)cc2c1 (stereo not shown) [Compound 235] |  | 4.17 (≈ 8.49 µM) | 6.60 (≈ 13.4 µM) | 
21 | Cc1cc(F)ccc1C1CC(O)(C(c2ccccc2)c2cc3cc(-c4cccnc4)ccc3[nH]c2=O)CCN1 (stereo not shown) [Compound 236] | 7.26 (≈ 14 µM) |  |  | 10.3 (≈ 19.7 µM)
22 | Cc1cc(F)ccc1C1CC(O)(C(c2ccccc2)c2cc3cc(S(C)(=O)=O)ccc3[nH]c2=O)CCN1 (stereo not shown) [Compound 265] |  | >13.92 | 13.92 (≈ 26.7 µM) | 
23 | CS(=O)(=O)c1ccc2[nH]c(=O)c(C(c3ccc(Cl)cc3)C3(O)CCN[C@@H](Cc4ccc(F)c(F)c4)C3)cc2c1 (stereo in doubt) [Compound 208] |  | 7.60 (≈ 13.3 µM) | 9.57 (≈ 16.7 µM) | 
24 | Cc1cc(F)ccc1C1CC(O)(C(c2cccc(Cl)c2)c2cc3cc(Br)ccc3[nH]c2=O)CCN1 (stereo not shown) [Compound 135] |  | 1.84 (≈ 3.31 µM) | 1.84 (≈ 3.31 µM) | 
25 | O=c1[nH]c2ccc(F)cc2cc1C(c1ccc(Cl)cc1)C1(O)CCNC(Cc2ccccc2)C1 (stereo not shown) [Compound 376] |  | 3.24 (≈ 6.79 µM) | 2.57 (≈ 5.39 µM) | 
26 | COc1nc2ccc(SC)cc2cc1C(c1cccc(Cl)c1)C1(O)CCNC(c2ccc(F)cc2C)C1 (stereo not shown) [Compound 148] |  | 3.39 (≈ 6.31 µM) | 1.70 (≈ 3.17 µM) | 
27 | Cc1cc(F)ccc1C1CC(O)(C(c2ccccc2)c2cc3cc(S(C)(=O)=O)ccc3[nH]c2=O)CCN1 (stereo not shown) [Compound 263] |  | >13.89 | >13.89 | 
28 | Cc1cc(F)ccc1C1CC(O)(C(c2cccc(Cl)c2)c2cc3cc(S(C)(=O)=O)ccc3[nH]c2=O)CCN1 (stereo not shown) [Compound 270] |  | 7.42 (≈ 13.4 µM) | 5.89 (≈ 10.6 µM) | 
29 | CSc1ccc2[nH]c(=O)c(C(c3ccc(Cl)cc3)C3(O)CCNC(c4ccccc4)C3)cc2c1 (stereo not shown) [Compound 230] |  | 1.67 (≈ 3.4 µM) | 1.18 (≈ 2.4 µM) | 
30 | O=c1[nH]c2ccc(Br)cc2cc1C(c1ccc(Cl)cc1)C1(O)CCNC(Cc2ccc(F)cc2F)C1 (stereo not shown) [Compound 316] |  | 3.84 (≈ 6.69 µM) | 3.05 (≈ 5.31 µM) | 
31 | COc1nc2ccc(SC)cc2cc1C(c1ccc(Cl)cc1)C1(O)CCNCC1(C)C (stereo not shown) [Compound 396] | 5.75 (≈ 12.6 µM) |  |  | 5.75 (≈ 12.6 µM)
32 | CS(=O)(=O)c1ccc2[nH]c(=O)c(C(c3ccc(Cl)cc3)C3(O)CCNC(Cc4ccc(F)cc4)C3)cc2c1 (stereo not shown) [Compound 58] |  | >13.94 | >13.94 | 
33 | COc1nc2ccc(Cl)cc2cc1C(c1ccc(Cl)cc1)C1(O)CCNC(c2cccnc2)C1 (stereo not shown) [Compound 28] |  | 6.22 (≈ 12.6 µM) | 3.12 (≈ 6.31 µM) | 
34 | Cc1cc(F)ccc1C1CC(O)(C(c2ccc(Cl)cc2)c2cc3cc(Cl)ccc3[nH]c2=O)CCN1 (stereo not shown) [Compound 303] |  |  | 5.47 (≈ 10.7 µM) | 6.88 (≈ 13.5 µM)
35 | COc1nc2ccc(F)cc2cc1C(c1ccc(Cl)cc1)C1(O)CCNC(Cc2ccccc2)C1 (stereo not shown) [Compound 54] |  | 3.54 (≈ 7.21 µM) | 1.77 (≈ 3.6 µM) | 
36 | O=c1[nH]c2ccc(Cl)cc2cc1C(c1ccc(Cl)cc1)C1(O)CCNC(Cc2ccc(F)cc2)C1 (stereo not shown) [Compound 344] |  | 3.46 (≈ 6.77 µM) | 8.68 (≈ 17 µM) | 
37 | COc1nc2ccc(S(C)(=O)=O)cc2cc1C(c1ccccc1)C1(O)CCNC(c2ccc(F)cc2C)C1 (stereo not shown) [Compound 253] |  | >13.43 | >13.43 | 
38 | COc1nc2ccccc2cc1C(c1ccc(Cl)cc1)C1(O)CCNC(CO)C1 (stereo not shown) [Compound 10] | > 10.4 |  |  | > 10.4
